Columns and labels:
[1] = target: T1, CAT (catalase from bovine liver) (Bos taurus, UniProt P00432); test: H2O2 decomposition, absorbance at […] nm; assay type: biochemical
T1 construct: native commercial enzyme from bovine liver (Beijing Solarbio); heme homotetramer, 506 residues per subunit
T1 sequence (P00432 2-527): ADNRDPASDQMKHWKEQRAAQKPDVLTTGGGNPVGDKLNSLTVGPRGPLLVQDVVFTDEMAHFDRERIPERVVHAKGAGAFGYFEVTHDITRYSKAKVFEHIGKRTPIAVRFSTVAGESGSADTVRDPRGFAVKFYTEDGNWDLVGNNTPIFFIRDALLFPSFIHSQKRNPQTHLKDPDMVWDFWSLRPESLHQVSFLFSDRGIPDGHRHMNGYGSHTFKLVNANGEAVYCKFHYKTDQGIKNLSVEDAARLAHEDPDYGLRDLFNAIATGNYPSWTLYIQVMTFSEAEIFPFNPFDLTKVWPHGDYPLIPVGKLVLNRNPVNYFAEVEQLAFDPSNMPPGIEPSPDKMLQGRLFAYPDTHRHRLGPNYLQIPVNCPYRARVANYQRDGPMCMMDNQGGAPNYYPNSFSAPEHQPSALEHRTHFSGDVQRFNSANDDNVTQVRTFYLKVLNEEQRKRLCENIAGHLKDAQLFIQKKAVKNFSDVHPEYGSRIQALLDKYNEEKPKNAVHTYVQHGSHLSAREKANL

[2] = target: T1, CAT (catalase from bovine liver); test: isothermal titration calorimetry, one-site model; assay type: binding; conditions: read-out: K (M^-1)
Text: isothermal titration calorimetry, one-site model on CAT (catalase from bovine liver)

Compound: O=C1c2ccccc2C(=O)c2c1cc(S(=O)(=O)O)c(O)c2O [Alizarin red S]
- inhibition at 5 µM [1]: 23.8%
- Kd [2]: 39.2 µM

From publication PMC9073274, “The toxic effects of alizarin red S on catalase at the molecular level” (RSC Advances, 2019)
